# Patent US20200009173A1, “TRIAZOLE-CONTAINING MACROLIDES AND OPHTHALMIC USES THEREFOR” (Tetard, Inc., priority 2017, published 2020)
# Where two headings read alike, the source gives them in different places.
# How the values were obtained:
# MSRA = assay: MICs of solithromycin and comparator drugs, MSRA (30 species); format: cell-based
# Source text: (§1) EXAMPLE. The formulations described herein show overall higher potency against ocular pathogens than commercial standards.
# (§2) MICs (μg/ml) of Solithromycin and Comparator Drugs against Bacterial Species
# Staphylococcus aureus = assay: MIC, Staphylococcus aureus; format: cell-based; conditions: N = 201
# [1] = tested on: Streptococci (Groups C, F, G); assay: MIC, Streptococci (Groups C, F, G); format: cell-based; conditions: N = 185
# Listeria monocytogenes = assay: MIC, Listeria monocytogenes; format: cell-based; conditions: N = 10
# Chlamydia trachomatis = assay: MIC, Chlamydia trachomatis; format: cell-based; conditions: N = 10
# Legionella pneumophila = assay: microbe, parasite or virus in culture; format: cell-based
# Streptococcus pyogenes = assay: MIC, Streptococcus pyogenes; format: cell-based
# [2] = tested on: Haemophilus parainfluenzae; assay: MIC, Haemophilus parainfluenzae; format: cell-based; conditions: N = 11
# MSSA = assay: MICs of solithromycin and comparator drugs, MSSA (31 species); format: cell-based
# Source text: as §1, §2
# [3] = tested on: phagocytized L. monocytogenes; assay: Activity against phagocytized L. monocytogenes; format: cell-based
# Ureaplasma urealyticum = assay: MIC, Ureaplasma urealyticum; format: cell-based; conditions: N = 10
# pathogenic bacteria = format: cell-based
# Moraxella catarrhalis = assay: MIC, Moraxella catarrhalis; format: cell-based; conditions: N = 21
# [4] = MIC in the presence of serum; format: cell-based; conditions: 10% serum
# Peptostreptococcus spp. = assay: MIC, Peptostreptococcus spp.; format: cell-based; conditions: N = 10
# S. pneumoniae = assay: MICs of solithromycin and comparator drugs, S. pneumoniae (30 species); format: cell-based
# Source text: as §1, §2
# Streptococcus mitis = assay: MIC, Streptococcus mitis; format: cell-based; conditions: N = 73
# Haemophilus influenzae = assay: MIC, Haemophilus influenzae (100 strains); format: cell-based
# H. influenzae = assay: MICs of solithromycin and comparator drugs, H. influenzae (30 species); format: cell-based
# Source text: as §1, §2
# TNFα = TNFα production in LPS-stimulated PMA-differentiated U937 cells (ELISA); format: cell-based, human
# Protocol: EXAMPLE. […] Cells. The human monocytic cell line U937 was obtained from the American Type Culture Collection (ATCC, Rockville, Md.). PBMCs from COPD patients were obtained from Brompton hospital and separated by AccuSPIN (Sigma-Aldrich). […] U937 cells were differentiated into adherent macrophage-like morphology by exposure to PMA (50 ng/ml) for 48 h in complete growth medium. Cell viability was assessed microscopically by trypan blue staining. Cell toxicity was determined by MTT assay as needed. This study was approved by the ethics committee of the Royal Brompton Hospitals, and all subjects gave written informed consent. Cytokine ELISA. TNFα and IL-8 concentrations in the supernatant of cell cultures were determined by sandwich ELISA according to the manufacturer's instructions (R&D Systems Europe, Abingdon, UK). Statistical analysis. The results were expressed as the mean±SEM. Comparisons of data in two groups were performed using the Student's t test or the Wilcoxon signed rank test. Multiple comparisons were made by one-way ANOVA with post hoc test (Dunnett's) as appropriate. The difference was considered significant at p<0.05. […] Anti-inflammatory effects of solithromycin in U937 cells.
# Neisseria gonorrhoeae = assay: MIC, Neisseria gonorrhoeae; format: cell-based; conditions: N = 34
# [5] = Protein binding in plasma; format: in vitro ADME
# Chlamydophila pneumoniae = assay: MIC, Chlamydophila pneumoniae (10 strains); format: cell-based
smiles,measurement,setting,value
"CC[C@H]1OC(=O)[C@@](C)(F)C(=O)[C@H](C)[C@@H](O[C@@H]2O[C@H](C)C[C@H](N(C)C)[C@H]2O)[C@](C)(OC)C[C@@H](C)C(=O)[C@H](C)[C@H]2N(CCCCn3cc(-c4cccc(N)c4)nn3)C(=O)O[C@]12C [CEM-101, solithromycin]",MIC50,MSRA,0.03 µg/mL
same,MIC90,MSRA,64 µg/mL
same,I (intermediate susceptibility),MSRA; 30 species,0%
same,NS (not susceptible),MSRA; 30 species,30%
same,S (susceptible),MSRA; 30 species,70%
same,MIC50,Staphylococcus aureus,0.12 µg/mL
same,MIC90,Staphylococcus aureus,> 16 µg/mL
same,MIC50,[1],≤ 0.03 µg/mL
same,MIC90,[1],≤ 0.03 µg/mL
same,MIC Range,[1],≤0.03-0.25^ μg/mL
same,MIC50,Listeria monocytogenes; Listeria monocytogenes,0.03 µg/mL
same,MIC90,Listeria monocytogenes; Listeria monocytogenes,0.03 µg/mL
same,MIC Range,Listeria monocytogenes,0.03 µg/mL
same,MIC50,Chlamydia trachomatis; Chlamydia trachomatis,0.25 µg/mL
same,MIC90,Chlamydia trachomatis; Chlamydia trachomatis,0.25 µg/mL
same,MIC Range,Chlamydia trachomatis,0.125 to 0.5 µg/mL
same,MIC50,Legionella pneumophila; Legionella pneumophila,≤ 0.015 µg/mL
same,MIC90,Legionella pneumophila; Legionella pneumophila,≤ 0.015 µg/mL
same,MIC90,Legionella pneumophila; N = 30,≤0.015 µg/mL
same,MIC Range,Legionella pneumophila; N = 30,≤0.015 µg/mL
same,MIC Range,Streptococcus pyogenes; N = 407 (CEM-101),≤0.03-0.5 ^ μg/mL
same,MIC50,Streptococcus pyogenes; Streptococcus pyogenes,≤ 0.03 µg/mL
same,MIC90,"Streptococcus pyogenes; Streptococcus pyogenes, 100 strains",0.03 µg/mL
same,MIC90,"Streptococcus pyogenes; Streptococcus pyogenes, N = 407 (CEM-101), N = 100 (azithromycin)",≤ 0.03 µg/mL
same,MIC50,[2]; Haemophilus parainfluenzae,2 µg/mL
same,MIC90,[2]; Haemophilus parainfluenzae,2 µg/mL
same,MIC Range,[2],1 to 2 µg/mL
same,I (intermediate susceptibility),MSSA,0%
same,MIC Range,MSSA,0.004 to 64 µg/mL
same,NS (not susceptible),MSSA,6%
same,S (susceptible),MSSA,94%
same,MIC50,"MSSA; Staphylococcus aureus, MSSA",0.015 µg/mL
same,MIC90,"MSSA; Staphylococcus aureus, MSSA",0.03 µg/mL
same,potency relative to azithromycin,[3],50 fold
same,MIC Range,Ureaplasma urealyticum,0.004 to 0.063 µg/mL
same,MIC50,Ureaplasma urealyticum; Ureaplasma urealyticum,0.008 µg/mL
same,MIC90,Ureaplasma urealyticum; Ureaplasma urealyticum,0.031 µg/mL
same,activity against AZI resistant strains,pathogenic bacteria,active against all AZI resistant strains tested
same,activity at acidic pH relative to AZI,"pathogenic bacteria; acidic pH, including in L. monocytogenes and S. aureus",100-200 fold
same,activity relative to conventional macrolides,pathogenic bacteria; greater activity than conventional macrolides,10 fold
same,intracellular activity relative to AZI,pathogenic bacteria; intracellular,10 fold
same,activity against phagocytized L. monocytogenes and L. pneumophila relative to conventional macrolides,pathogenic bacteria; phagocytized bacteria,50-100 fold
same,MIC50,Moraxella catarrhalis; Moraxella catarrhalis,0.12 µg/mL
same,MIC90,Moraxella catarrhalis; Moraxella catarrhalis,0.12 µg/mL
same,MIC Range,Moraxella catarrhalis,≤0.008 to 0.5 µg/mL
same,change in MIC in the presence of serum,[4],2 fold
same,MIC Range,Peptostreptococcus spp.,≤0.03-0.25^ μg/mL
same,MIC50,Peptostreptococcus spp.; Peptostreptococcus,0.06 µg/mL
same,MIC90,Peptostreptococcus spp.; Peptostreptococcus,0.25 µg/mL
same,I (intermediate susceptibility),S. pneumoniae,0%
same,MIC Range,S. pneumoniae,≤0.001-0.25 ^ μg/ml
same,NS (not susceptible),S. pneumoniae,0%
same,S (susceptible),S. pneumoniae,100%
same,MIC50,S. pneumoniae; Streptococcus pneumoniae,0.002 µg/mL
same,MIC90,S. pneumoniae; Streptococcus pneumoniae,0.12 µg/mL
same,MIC Range,Streptococcus mitis,≤0.03-0.25^ μg/mL
same,MIC50,Streptococcus mitis; Streptococcus mitis,≤ 0.03 µg/mL
same,MIC90,Streptococcus mitis; Streptococcus mitis,0.06 µg/mL
same,MIC90,"Haemophilus influenzae; Haemophilus influenzae, 100 strains, read-out: MIC90",2 µg/mL
same,MIC50,"Haemophilus influenzae; Haemophilus influenzae, N = 100",1 µg/mL
same,MIC90,Haemophilus influenzae; N = 100,2 µg/mL
same,MIC Range,Haemophilus influenzae; N = 100,0.12 to 4 µg/mL
same,I (intermediate susceptibility),H. influenzae,0%
same,MIC Range,H. influenzae,1 to 4 µg/mL
same,NS (not susceptible),H. influenzae,0%
same,S (susceptible),H. influenzae,100%
same,MIC50,H. influenzae; Haemophilus influenzae,2 µg/mL
same,MIC90,H. influenzae; Haemophilus influenzae,2 µg/mL
same,IC50,"TNFα; Homo sapiens, U-937, LPS, PMA-differentiated U937 cells, read-out: IC50 on TNFα release",41.6 ± 1.9 µM
same,effect on TNFα production,TNFα; at 100 μM,significantly inhibited
same,MIC Range,Neisseria gonorrhoeae,0.03 to 0.25 µg/mL
same,MIC50,Neisseria gonorrhoeae; Neisseria gonorrhoeae,0.06 µg/mL
same,MIC90,Neisseria gonorrhoeae; Neisseria gonorrhoeae,0.12 µg/mL
same,fraction unbound,[5],0.14
same,MIC90,"Chlamydophila pneumoniae; Chlamydia pneumoniae, 10 strains, read-out: MIC90",0.25 µg/mL
same,MIC50,"Chlamydophila pneumoniae; Chlamydia pneumoniae, N = 10",0.25 µg/mL
same,MIC90,Chlamydophila pneumoniae; N = 10,0.25 µg/mL
same,MIC Range,Chlamydophila pneumoniae; N = 10,0.25 to 1 µg/mL
